# Experimental data: ChEMBL document CHEMBL3885861, “Open TG-GATES”
# Species on record: Rattus norvegicus
# Assay: Open TG-GATES - Regimen: Single
# Type: toxicity, organism-based, Sprague-Dawley
# Set-up: regimen Single, gender Male, age 6 weeks
# Conditions: in vivo, po, 0 mg/kg, route gavage, dose level Control; for APTT / Bas / Eos / Fbg / Hb / Ht / Lym / MCH / MCHC / MCV / Mono / Neu / PT / Plat / RBC / Ret / WBC: tissue Blood; for KIDNEY_L / KIDNEY_R / KIDNEY_TOTAL: tissue Kidney; for LIVER: tissue Liver
compound,measurement,setting,value
CC(=O)N1CCN(c2ccc(OCC3COC(Cn4ccnc4)(c4ccc(Cl)cc4Cl)O3)cc2)CC1 (stereo not given) [KETOCONAZOLE],TERMINAL_BW,3 h,204 g
same,APTT,3 h,20.5 s
same,Bas,3 h,0%
same,Eos,3 h,0.8%
same,Fbg,3 h,282.4 mg/dL
same,Hb,3 h,12.8 g/dL
same,Ht,3 h,38.4%
same,Lym,3 h,76.4%
same,MCH,3 h,21.5 pg
same,MCHC,3 h,33.4%
same,MCV,3 h,64.4 fL
same,Mono,3 h,1.6%
same,Neu,3 h,19.8%
same,PT,3 h,16.9 s
same,Plat,3 h,117 x10_4/uL
same,RBC,3 h,596.2 x10_4/ul
same,Ret,3 h,8.8%
same,WBC,3 h,73.4 x10_2/uL
same,KIDNEY_L,3 h,0.9 g
same,KIDNEY_R,3 h,0.9 g
same,KIDNEY_TOTAL,3 h,1.9 g
same,LIVER,3 h,9.8 g
same,ALP,"3 h, tissue Plasma",1856.6 IU/L
same,AST,"3 h, tissue Plasma",76.2 IU/L
same,BUN,"3 h, tissue Plasma",13.2 mg/dL
same,CRE,"3 h, tissue Plasma",0.2 mg/dL
same,Ca,"3 h, tissue Plasma",11 mg/dL
same,Cl,"3 h, tissue Plasma",104.8 meq/L
same,DBIL,"3 h, tissue Plasma",0.004 mg/dL
same,GLC,"3 h, tissue Plasma",175.4 mg/dL
same,IP,"3 h, tissue Plasma",7.9 mg/dL
same,LDH,"3 h, tissue Plasma",167.6 IU/L
same,Na,"3 h, tissue Plasma",141.8 meq/L
same,PL,"3 h, tissue Plasma",135 mg/dL
same,RALB,"3 h, tissue Plasma",2.9 g/dL
same,TBIL,"3 h, tissue Plasma",0.016 mg/dL
same,TC,"3 h, tissue Plasma",74.8 mg/dL
same,TG,"3 h, tissue Plasma",63.2 mg/dL
same,TP,"3 h, tissue Plasma",5.4 g/dL
same,gamma-GTP,"3 h, tissue Plasma",1 IU/L
same,TERMINAL_BW,6 h,204.2 g
same,APTT,6 h,21.3 s
same,Bas,6 h,0%
same,Eos,6 h,0.8%
same,Fbg,6 h,293.6 mg/dL
same,Hb,6 h,13.2 g/dL
same,Ht,6 h,39.7%
same,Lym,6 h,83.2%
same,MCH,6 h,21.5 pg
same,MCHC,6 h,33.2%
same,MCV,6 h,64.7 fL
same,Mono,6 h,1.8%
same,Neu,6 h,13.4%
same,PT,6 h,16.9 s
same,Plat,6 h,122.1 x10_4/uL
same,RBC,6 h,613.4 x10_4/ul
same,Ret,6 h,8.4%
same,WBC,6 h,78.2 x10_2/uL
same,KIDNEY_L,6 h,1 g
same,KIDNEY_R,6 h,1 g
same,KIDNEY_TOTAL,6 h,1.9 g
same,LIVER,6 h,9.1 g
same,ALP,"6 h, tissue Plasma",1433 IU/L
same,AST,"6 h, tissue Plasma",71 IU/L
same,BUN,"6 h, tissue Plasma",9.6 mg/dL
same,CRE,"6 h, tissue Plasma",0.2 mg/dL
same,Ca,"6 h, tissue Plasma",10.8 mg/dL
same,Cl,"6 h, tissue Plasma",105.6 meq/L
same,DBIL,"6 h, tissue Plasma",0 mg/dL
same,GLC,"6 h, tissue Plasma",176.8 mg/dL
same,IP,"6 h, tissue Plasma",8.4 mg/dL
same,LDH,"6 h, tissue Plasma",197.4 IU/L
same,Na,"6 h, tissue Plasma",141.2 meq/L
same,PL,"6 h, tissue Plasma",124.2 mg/dL
same,RALB,"6 h, tissue Plasma",2.9 g/dL
same,TBIL,"6 h, tissue Plasma",0.022 mg/dL
same,TC,"6 h, tissue Plasma",67.6 mg/dL
same,TG,"6 h, tissue Plasma",47.6 mg/dL
same,TP,"6 h, tissue Plasma",5.4 g/dL
same,gamma-GTP,"6 h, tissue Plasma",1 IU/L
same,TERMINAL_BW,9 h,201.8 g
same,APTT,9 h,21.3 s
same,Bas,9 h,0%
same,Eos,9 h,1.2%
same,Fbg,9 h,294.4 mg/dL
same,Hb,9 h,13 g/dL
same,Ht,9 h,38.9%
same,Lym,9 h,75%
same,MCH,9 h,21.1 pg
same,MCHC,9 h,33.3%
same,MCV,9 h,63.3 fL
same,Mono,9 h,1.8%
same,Neu,9 h,21.4%
same,PT,9 h,16.4 s
same,Plat,9 h,138.7 x10_4/uL
same,RBC,9 h,615.6 x10_4/ul
same,Ret,9 h,7.7%
same,WBC,9 h,69.1 x10_2/uL
same,KIDNEY_L,9 h,1 g
same,KIDNEY_R,9 h,1 g
same,KIDNEY_TOTAL,9 h,1.9 g
same,LIVER,9 h,8.6 g
same,ALP,"9 h, tissue Plasma",1580.4 IU/L
same,AST,"9 h, tissue Plasma",75 IU/L
same,BUN,"9 h, tissue Plasma",10.2 mg/dL
same,CRE,"9 h, tissue Plasma",0.2 mg/dL
same,Ca,"9 h, tissue Plasma",10.4 mg/dL
same,Cl,"9 h, tissue Plasma",106 meq/L
same,DBIL,"9 h, tissue Plasma",0.008 mg/dL
same,GLC,"9 h, tissue Plasma",180.4 mg/dL
same,IP,"9 h, tissue Plasma",9.5 mg/dL
same,LDH,"9 h, tissue Plasma",227.2 IU/L
same,Na,"9 h, tissue Plasma",142.2 meq/L
same,PL,"9 h, tissue Plasma",125.6 mg/dL
same,RALB,"9 h, tissue Plasma",3.1 g/dL
same,TBIL,"9 h, tissue Plasma",0.026 mg/dL
same,TC,"9 h, tissue Plasma",67.2 mg/dL
same,TG,"9 h, tissue Plasma",52.6 mg/dL
same,TP,"9 h, tissue Plasma",5.5 g/dL
same,gamma-GTP,"9 h, tissue Plasma",1 IU/L
same,TERMINAL_BW,24 h,213.9 g
same,APTT,24 h,19.8 s
same,Bas,24 h,0%
same,Eos,24 h,0.8%
same,Fbg,24 h,307.2 mg/dL
same,Hb,24 h,13.3 g/dL
same,Ht,24 h,38.9%
same,Lym,24 h,77.6%
same,MCH,24 h,21.8 pg
same,MCHC,24 h,34.2%
same,MCV,24 h,63.9 fL
same,Mono,24 h,2%
same,Neu,24 h,19%
same,PT,24 h,16.7 s
same,Plat,24 h,117.4 x10_4/uL
same,RBC,24 h,609 x10_4/ul
same,Ret,24 h,7.5%
same,WBC,24 h,70.3 x10_2/uL
same,KIDNEY_L,24 h,1 g
same,KIDNEY_R,24 h,1 g
same,KIDNEY_TOTAL,24 h,2 g
same,LIVER,24 h,10.4 g
same,ALP,"24 h, tissue Plasma",1980.8 IU/L
same,ALT,"24 h, tissue Plasma",44 IU/L
same,AST,"24 h, tissue Plasma",73.2 IU/L
same,BUN,"24 h, tissue Plasma",16.4 mg/dL
same,CRE,"24 h, tissue Plasma",0.2 mg/dL
same,Ca,"24 h, tissue Plasma",10.7 mg/dL
same,Cl,"24 h, tissue Plasma",107.2 meq/L
same,DBIL,"24 h, tissue Plasma",0 mg/dL
same,GLC,"24 h, tissue Plasma",185.6 mg/dL
same,IP,"24 h, tissue Plasma",6.5 mg/dL
same,LDH,"24 h, tissue Plasma",211.2 IU/L
same,Na,"24 h, tissue Plasma",142.2 meq/L
same,PL,"24 h, tissue Plasma",147 mg/dL
same,RALB,"24 h, tissue Plasma",3.1 g/dL
same,TBIL,"24 h, tissue Plasma",0.002 mg/dL
same,TC,"24 h, tissue Plasma",76.6 mg/dL
same,TG,"24 h, tissue Plasma",107.6 mg/dL
same,TP,"24 h, tissue Plasma",5.6 g/dL
